Legend:
GABAB receptor [1] = biological target: GABAB receptor (Homo sapiens, UniProt Q9UBS5); experiment: GABAB receptor agonist or partial agonist activity by binding, electrophysiology, cAMP and/or Ca2+ assay methods (Examples 83-86); format: cell-based
Procedure, shortened: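 Binding: rat cortex membranes in 50 mM Tris pH 7.4 with 100 μM isoguvacine were preincubated 10 min at RT with compound, then radiolabeled CGP54626 (1-10 nM) was added; filtered and scintillation-counted. cAMP: GABAB R1a2 HEK cells, 1 h RT with 100 μM forskolin, chemiluminescence.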

[2] = biological target: T1, recombinant human GABABR1a2 (Homo sapiens, UniProt Q9UBS5); experiment: Ca2+ assay for determining GABAB receptor agonist activity; format: cell-based; settings: cells expressing recombinant human GABABR1a2
T1 construct: expressed in transfected cells; host or cells: HEK cells
T1 sequence (Q9UBS5 15-961 limits assumed): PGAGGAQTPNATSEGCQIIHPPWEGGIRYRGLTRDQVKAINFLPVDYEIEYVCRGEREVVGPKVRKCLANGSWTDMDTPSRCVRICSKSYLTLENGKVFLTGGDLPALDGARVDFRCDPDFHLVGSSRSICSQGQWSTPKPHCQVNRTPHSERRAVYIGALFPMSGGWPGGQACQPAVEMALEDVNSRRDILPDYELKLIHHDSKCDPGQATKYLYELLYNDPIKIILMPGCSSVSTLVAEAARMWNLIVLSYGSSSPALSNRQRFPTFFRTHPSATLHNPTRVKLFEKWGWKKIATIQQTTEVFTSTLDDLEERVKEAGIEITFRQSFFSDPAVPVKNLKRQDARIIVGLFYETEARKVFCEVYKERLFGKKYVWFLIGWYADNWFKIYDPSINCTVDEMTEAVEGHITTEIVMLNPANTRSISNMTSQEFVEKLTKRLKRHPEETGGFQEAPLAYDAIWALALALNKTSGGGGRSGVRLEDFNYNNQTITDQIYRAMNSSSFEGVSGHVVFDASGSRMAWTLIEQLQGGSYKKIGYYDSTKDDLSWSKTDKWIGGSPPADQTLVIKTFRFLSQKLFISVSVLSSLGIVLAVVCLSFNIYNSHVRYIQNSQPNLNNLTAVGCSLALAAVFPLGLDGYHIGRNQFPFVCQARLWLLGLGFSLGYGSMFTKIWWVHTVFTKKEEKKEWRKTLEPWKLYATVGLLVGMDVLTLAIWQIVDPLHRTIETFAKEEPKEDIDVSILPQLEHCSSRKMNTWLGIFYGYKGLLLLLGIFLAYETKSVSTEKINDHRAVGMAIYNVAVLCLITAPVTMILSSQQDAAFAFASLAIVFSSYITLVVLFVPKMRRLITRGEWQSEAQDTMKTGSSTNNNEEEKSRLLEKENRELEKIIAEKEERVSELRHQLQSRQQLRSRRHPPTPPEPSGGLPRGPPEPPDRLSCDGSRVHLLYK
T1 sequence (O75899 42-941 partner): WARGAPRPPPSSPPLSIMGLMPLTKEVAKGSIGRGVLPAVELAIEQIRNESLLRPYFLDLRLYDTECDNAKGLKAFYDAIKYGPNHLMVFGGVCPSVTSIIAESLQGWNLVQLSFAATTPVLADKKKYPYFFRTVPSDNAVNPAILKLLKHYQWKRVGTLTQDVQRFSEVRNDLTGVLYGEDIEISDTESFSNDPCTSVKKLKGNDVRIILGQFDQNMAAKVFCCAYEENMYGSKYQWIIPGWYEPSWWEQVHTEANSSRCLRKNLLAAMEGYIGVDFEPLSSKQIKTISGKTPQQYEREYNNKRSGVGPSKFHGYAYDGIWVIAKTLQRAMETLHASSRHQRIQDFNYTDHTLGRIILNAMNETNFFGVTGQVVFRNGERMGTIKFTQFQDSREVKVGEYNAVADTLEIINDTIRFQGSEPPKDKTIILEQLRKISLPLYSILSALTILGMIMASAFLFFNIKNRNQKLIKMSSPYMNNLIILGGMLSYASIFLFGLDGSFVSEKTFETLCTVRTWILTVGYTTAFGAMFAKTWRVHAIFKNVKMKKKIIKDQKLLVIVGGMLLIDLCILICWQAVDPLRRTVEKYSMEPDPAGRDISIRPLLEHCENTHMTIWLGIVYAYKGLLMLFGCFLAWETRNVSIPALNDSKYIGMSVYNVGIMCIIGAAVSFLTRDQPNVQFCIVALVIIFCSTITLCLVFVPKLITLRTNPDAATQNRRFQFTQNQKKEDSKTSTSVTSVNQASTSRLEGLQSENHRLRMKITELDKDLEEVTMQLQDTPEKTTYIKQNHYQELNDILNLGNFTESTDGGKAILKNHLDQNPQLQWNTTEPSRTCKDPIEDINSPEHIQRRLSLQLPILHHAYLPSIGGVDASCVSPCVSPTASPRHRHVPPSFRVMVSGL
Procedure: The following procedure was used to determine the GABAB receptor agonist activity of a compound as reflected by activation of Ca^2+ signaling. HEK TREx cells expressing GABABR1a2 under tetracycline induction control, and Gqi chimeric protein (expressed constitutively), allowing GABABR coupling through the Ca^2+ signaling pathway were used in the experiments.
Cells were seeded in media containing tetracycline overnight at 100,000 cells/well, in black, clear-bottom, 96-well plates. The following morning, cells were washed twice with 100 μL HBSS buffer per well. Fluorescent Ca^2+ indicator dye was prepared using the materials and procedure described in the F362056 Fluo-4 NW Calcium Assay Kit (Invitrogen, Carlsbad, Calif.). Ten (10) mL of kit buffer and 100 μl of kit Probenecid were added to individual kit dye vials, and rolled back and forth several times to dissolve the dye. Cells were then loaded into the dye solution at 50 μL per well. The cells and dye were incubated for 30 min at 37° C., and then incubated for an additional 30 min at room temperature in the dark. Test compounds are dissolved in HBSS buffer at twice final concentration. Duplicate wells were used for each unique condition. Solution containing the test compound was added to the wells using a FLEXStation II (Molecular Devices, Sunnyvale, Calif.). Using the instrument in kinetic mode in which each well was read every 2 sec over a total collection time of 50 sec fluorescence was measured using an excitation wavelength 494 nm and a detection wavelength of 516 nm. A normalized fluorescence value for each well was calculated using the following procedure. The difference in fluorescence at 35 sec (usually representing maximal response) and at 15 sec (a time point prior to addition of test compounds) was calculated, divided by the fluorescence at 15 sec, and the result multiplied by 100. The final value represented the percent increase in fluorescence relative to the fluorescence at 15 sec. Data was analyzed using standard procedures.

GABAB receptor [3] = biological target: T2, GABAB receptor (Rattus norvegicus, UniProt Q9Z0U4); experiment: [3H]CGP54626 rat brain GABAB receptor binding assay; settings: [3H]CGP54626 rat brain binding assay
T2 construct: from tissue; host or cells: rat cerebral cortex membranes
T2 sequence (Q9Z0U4 20-960): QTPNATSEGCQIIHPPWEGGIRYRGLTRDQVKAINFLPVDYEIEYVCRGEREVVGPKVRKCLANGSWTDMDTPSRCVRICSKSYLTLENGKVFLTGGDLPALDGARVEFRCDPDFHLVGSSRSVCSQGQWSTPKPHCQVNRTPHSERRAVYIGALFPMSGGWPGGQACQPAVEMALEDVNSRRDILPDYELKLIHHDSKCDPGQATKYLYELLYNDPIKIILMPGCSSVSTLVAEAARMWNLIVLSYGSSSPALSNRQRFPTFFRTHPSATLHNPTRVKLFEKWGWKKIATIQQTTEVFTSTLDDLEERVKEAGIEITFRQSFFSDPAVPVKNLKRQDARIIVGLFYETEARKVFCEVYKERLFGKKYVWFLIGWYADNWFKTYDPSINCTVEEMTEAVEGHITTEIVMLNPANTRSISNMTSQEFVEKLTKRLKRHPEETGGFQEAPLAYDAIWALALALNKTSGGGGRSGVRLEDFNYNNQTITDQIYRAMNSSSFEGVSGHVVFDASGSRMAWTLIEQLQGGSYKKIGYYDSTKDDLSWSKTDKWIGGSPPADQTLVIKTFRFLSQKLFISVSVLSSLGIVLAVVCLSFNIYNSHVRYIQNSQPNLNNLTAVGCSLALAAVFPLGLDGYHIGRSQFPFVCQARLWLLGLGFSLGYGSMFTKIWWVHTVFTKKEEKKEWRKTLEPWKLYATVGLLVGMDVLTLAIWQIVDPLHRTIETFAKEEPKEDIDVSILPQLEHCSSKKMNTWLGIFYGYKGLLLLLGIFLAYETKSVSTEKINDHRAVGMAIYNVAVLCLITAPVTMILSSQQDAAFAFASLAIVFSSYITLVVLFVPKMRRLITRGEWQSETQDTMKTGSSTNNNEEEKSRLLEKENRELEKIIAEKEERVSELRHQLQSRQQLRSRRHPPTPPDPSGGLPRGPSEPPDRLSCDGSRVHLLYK
T2 sequence (O88871 41-940 partner): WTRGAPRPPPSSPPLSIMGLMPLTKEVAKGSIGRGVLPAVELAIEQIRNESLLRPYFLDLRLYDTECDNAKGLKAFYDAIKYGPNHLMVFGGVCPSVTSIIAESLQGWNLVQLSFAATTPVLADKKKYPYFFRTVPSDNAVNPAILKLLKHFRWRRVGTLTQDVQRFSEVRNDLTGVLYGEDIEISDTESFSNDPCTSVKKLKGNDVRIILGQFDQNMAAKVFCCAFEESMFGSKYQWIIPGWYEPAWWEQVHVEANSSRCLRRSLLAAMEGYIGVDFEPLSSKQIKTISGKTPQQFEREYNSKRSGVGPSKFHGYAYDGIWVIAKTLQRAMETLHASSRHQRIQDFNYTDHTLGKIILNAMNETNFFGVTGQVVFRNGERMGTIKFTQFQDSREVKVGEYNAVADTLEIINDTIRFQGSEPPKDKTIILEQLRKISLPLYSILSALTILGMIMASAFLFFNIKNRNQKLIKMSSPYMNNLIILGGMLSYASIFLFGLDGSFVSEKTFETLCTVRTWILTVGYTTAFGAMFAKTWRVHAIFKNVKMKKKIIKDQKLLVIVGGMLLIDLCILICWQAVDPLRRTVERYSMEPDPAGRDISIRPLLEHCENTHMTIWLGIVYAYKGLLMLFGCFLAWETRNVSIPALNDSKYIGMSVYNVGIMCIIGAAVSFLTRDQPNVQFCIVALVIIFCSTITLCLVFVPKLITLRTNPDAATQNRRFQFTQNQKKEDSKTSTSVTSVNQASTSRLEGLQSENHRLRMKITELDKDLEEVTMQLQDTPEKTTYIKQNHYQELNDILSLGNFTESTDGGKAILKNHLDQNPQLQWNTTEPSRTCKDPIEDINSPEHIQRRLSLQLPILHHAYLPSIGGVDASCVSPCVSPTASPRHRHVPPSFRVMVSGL
Procedure: An assay using rat cerebral cortex membranes was used to determine the affinity of GABAB receptor ligands for the GABAB receptor.
An assay buffer of 50 mM Tris pH 7.4 was prepared with 100 μM of isoguvacine, to block GABAA interactions. The assay buffer with isoguvacine was used for dilution of membranes, compounds, and radiolabel.
Rat cerebral cortex membranes were diluted in assay buffer at 1 mg/mL and aliquoted into a 96-well plate at 900 μL/well. Buffer or test compound were added at 20-times final concentration in the buffer at 50 μL/well. Membranes and test compounds or buffer were incubated for 10 min. at room temperature. Radiolableled [S—(R*,R*)]-[3-[[1-(3,4-dichlorophenyl)ethyl]amino]-2-hydroxypropyl](cyclohexylmethyl) phosphinic acid (CGP54626) was then added at 50 μL/well in the buffer at 1-10 nM concentration in 50 μl. The mixture was incubated for 15 min. at room temperature. The assay mixture was filtered using Brandell filtration apparatus and GFB filters, washed twice with 3 mL of 4° C., 50 mM Tris pH 7.4, buffer without isoguvacine. The filters were then dried at room temperature and the dried filters punched out and placed in individual vials. Three (3) mL of scintillation fluid was added to each vial and the radiolabel counted on the scintillation counter. The inverse amount of radiolabel was indicative of binding of a test compound to the GABAB receptor.

[4] = biological target: T1, recombinant human GABABR1a2; experiment: cAMP assay for determining GABAB receptor agonist activity; format: cell-based; settings: cells expressing recombinant human GABABR1a2; read-out: cAMP EC50
Procedure: The following procedure was used to determine the level of intracellular cAMP. Recombinant HEK cells expressing the GABAB R1a2 receptor were used in the experiments. cAMP levels were measured using a cAMP XS^+ HitHunter™ Chemiluminescence Assay Kit (90-0075-02, GE Healthcare Biosciences Corp.). Cells were seeded overnight at 5,000 cells per well, in black, clear bottom 96-well plates. The following morning, cells were washed twice with 100 μL PBS per well. Forskolin was weighed out and dissolved in DMSO to a final concentration 100 mM. One-hundred (100) μM forskolin solutions were prepared in PBS with and without test compound at 1-times final concentration. Thirty (30) μL of the test solutions were added to the wells and incubated for 1 h at room temperature. The cAMP concentration was determined according to the protocol described in the cAMP assay kit, maintaining the plate at room temperature and in the dark. Two hours after the final kit reagent was added, the plate bottom was covered with black tape, and the plate read using a 1450 MicroBeta Trilux microplate scintillation and luminescence counter (PerkinElmer, Waltham, Mass.). Each well was read for 6 seconds. The untransformed data was then analyzed.

[5] = Bioavailability following oral administration to rats; settings: rat, in vivo
Procedure: Rats were obtained commercially and were pre-cannulated in the jugular vein. Animals were conscious at the time of the experiment. All animals were fasted overnight and until 4 hours post-dosing of a compound.
Rat blood samples (0.3 mL/sample) were collected from all animals prior to dosing and at different time-points up to 24 h post-dose into tubes containing EDTA. Two aliquots (100 μL each) were quenched with 300 μL methanol and stored at −20° C. prior to analysis.
To prepare analysis standards, 90 μL of rat blood was quenched with 300 μL methanol followed by 10 μL of spiking standard and/or 20 μL of internal standard. The sample tubes were vortexed for at least 2 min and then centrifuged at 3400 rpm for 20 min. The supernatant was then transferred to an injection vial or plate for analysis by LC-MS-MS.
To prepare samples for analysis, 20 μL of internal standard was added to each quenched sample tube. The sample tubes were vortexed for at least 2 min and then centrifuged at 3400 rpm for 20 min. The supernatant was then transferred to an injection vial or plate for analysis by LC-MS-MS.
LC/MS/MS analysis was performed using an API 2000 or API 4000 mass spectrometer equipped with a Shimadzu and or Agilent HPLC system are used for determination concentration of compounds in rat blood. A Varian Polaris C18, 3μ 50×4.6 mm column was used. 0.1% Formic acid in water and acetonitrile were applied as the mobile phase. Runs were 4.0 min. […] L-4-Chlorophenylalanine was used as an internal standard at m/z 200.00/154.00.
Non-compartmental analysis was performed using WinNonlin software (v.3.1 Professional Version, Pharsight Corporation, Mountain View, Calif.) on individual animal profiles. […]
The oral bioavailability (F %) of a compound was determined by comparing the area under the compound concentration vs time curve (AUC) following oral administration of a prodrug of a GABAB ligand with the AUC of the compound concentration vs time curve following intravenous administration of the GABAB ligand on a dose normalized basis.

[6] = tested on: GABAB(1)+/- and GABAB(1)+/+ mice; settings: 9.6 mg/kg, cited from earlier work
[7] = tested on: S. murinus (house musk shrew); settings: subcutaneously 30 minutes prior to challenge at 1, 3, and 10 mg/kg; reduced from about 23; cited from earlier work

Sequence of GABAB receptor (Homo sapiens, UniProt Q9UBS5) (Q9UBS5 20-961): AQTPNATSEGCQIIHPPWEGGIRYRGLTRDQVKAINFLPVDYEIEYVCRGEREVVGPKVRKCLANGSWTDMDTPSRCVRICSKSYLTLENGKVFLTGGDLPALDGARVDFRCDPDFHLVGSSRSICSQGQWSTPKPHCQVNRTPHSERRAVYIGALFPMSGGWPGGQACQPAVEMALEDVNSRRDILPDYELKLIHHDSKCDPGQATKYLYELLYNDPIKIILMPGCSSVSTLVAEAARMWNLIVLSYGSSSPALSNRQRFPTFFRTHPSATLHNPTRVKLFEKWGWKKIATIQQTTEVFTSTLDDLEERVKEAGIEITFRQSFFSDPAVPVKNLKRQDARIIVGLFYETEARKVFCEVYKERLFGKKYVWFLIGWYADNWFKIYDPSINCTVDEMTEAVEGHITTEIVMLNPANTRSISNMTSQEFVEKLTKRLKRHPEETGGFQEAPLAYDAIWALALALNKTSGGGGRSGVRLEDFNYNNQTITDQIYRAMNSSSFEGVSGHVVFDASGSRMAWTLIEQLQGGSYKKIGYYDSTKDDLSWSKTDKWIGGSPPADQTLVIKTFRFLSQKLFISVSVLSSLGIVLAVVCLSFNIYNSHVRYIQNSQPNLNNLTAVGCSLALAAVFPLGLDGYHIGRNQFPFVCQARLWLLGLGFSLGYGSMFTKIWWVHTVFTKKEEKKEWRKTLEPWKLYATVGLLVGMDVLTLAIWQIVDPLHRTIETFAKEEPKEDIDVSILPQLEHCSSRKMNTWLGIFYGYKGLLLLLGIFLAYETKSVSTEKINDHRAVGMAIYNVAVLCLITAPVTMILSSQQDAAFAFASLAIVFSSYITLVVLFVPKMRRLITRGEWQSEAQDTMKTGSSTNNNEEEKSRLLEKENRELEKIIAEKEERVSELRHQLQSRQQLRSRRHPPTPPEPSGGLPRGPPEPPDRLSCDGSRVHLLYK
Sequence of GABAB receptor (Homo sapiens, UniProt Q9UBS5) (O75899 42-941 partner): as the sequence (O75899 42-941 partner) above

| Structure (SMILES) | GABAB receptor agonist or partial agonist activity (GABAB receptor [1]) | EC50 [2] [nM] | IC50 (GABAB receptor [3]) [nM] | EC50 [4] [nM] | oral bioavailability (F %) [5] | also measured |
| --- | --- | --- | --- | --- | --- | --- |
| Cl.NC[C@H](CC(=O)O)c1ccc(Cl)c(NCc2cnc[nH]2)c1 [Example 60, (3R)-4-Amino-3-{4-chloro-3-[(imidazol-5-ylmethyl)amino]phenyl}butanoic acid hydrochloride] | agonist or partial agonist activity | < 700 | < 25000 | < 100 | – | – |
| Cl.NC[C@H](CC(=O)O)c1ccc(Cl)c(-c2ccc(C(=O)O)s2)c1 [Example 67, 5-{5-[(1R)-2-Amino-1-(carboxymethyl)ethyl]-2-chlorophenyl}thiophene-2-carboxylic acid hydrochloride] | agonist or partial agonist activity | < 700 | < 25000 | < 100 | – | – |
| C[C@H](N)C(=O)NC[C@H](CC(=O)O)c1ccc(Cl)c(OCc2ccncc2)c1.Cl [Example 73, (3R)-4-((2S)-2-Aminopropanoylamino)-3-[4-chloro-3-(4-pyridylmethoxy)phenyl]butanoic acid hydrochloride] | – | – | – | – | greater than 10% | – |
| Cl.NC(=O)CC[C@H](N)C(=O)NC[C@H](CC(=O)O)c1ccc(Cl)c(-c2ccc(C(=O)O)s2)c1 [Example 80] | – | – | – | – | greater than 10% | – |
| NCC(CC(=O)O)c1ccc(Cl)cc1 (stereo not shown) [baclofen] | – | – | – | – | – | hypothermia ([6]; GABAB(1)+/- and GABAB(1)+/+ but not GABAB(1)-/- mice): marked hypothermia; time after administration at which hypothermia reaches its minimum [6]: 60 to 80 min; number of emetic episodes [7]: about 13 |

Source: patent US8344028B2, “Gamma-amino-butyric acid derivatives as GABAB receptor ligands” (XenoPort, Inc., priority 2009, dated 2013)
